Where two headings read alike, the source gives them in different places.
What was measured:
IL-17A = IL-17A enzyme-linked immune quantitative assay in cytostim-activated human PBMC; type: cell-based; conditions: 72 h; IL-17A in supernatant of human PBMC, 3 days after drug treatment
Experimental: 1. Human peripheral blood mononuclear cells (PBMC) (Zenbio)
5. Human IL-17 enzyme-linked immunosorbent kit (R&D System)
Frozen human peripheral blood mononuclear cells (PBMC) were rapidly resuscitated in pre-warmed lymphocyte culture medium, and centrifuged at 1000 rpm for 10 min. The cell culture supernatant was removed. The cells were gently suspended in TexMACS medium and counted. The T cell activation reagent cytostim (10 μl/ml) was added in proportion to the cell suspension. Then, the cells were seeded in a 96-well cell culture plate at a density of 1×10^5 peripheral blood mononuclear cells/well. The test compounds were diluted in gradient with TexMACS medium, and added respectively to the test wells, with 2-3 parallel wells per group. A negative control well containing only cells without cytostim was provided to obtain the background reading. The cell culture plate was placed in a incubator at 5% carbon dioxide, 37° C. to incubate for 3 days. The cell culture supernatant was collected 3 days after drug treatment, and centrifuged to remove the suspension. Then, IL-17A in the supernatant was quantified with IL-17A enzyme-linked immunosorbent kit. EC50 values of the test compounds were calculated with GraphPad Prism 6.0.

RORγ LBD = target: T1, RORγ LBD (Homo sapiens, UniProt P51449); assay: LanthaScreen TR-FRET RORγ co-activation system, effect on in vitro activity of RORγ; type: biochemical; conditions: for EC50: TR-FRET RORγ co-activation, for agonist the value refers to EC50, read-out: EC50/IC50 a (nM): EC50 (agonist); for Type: agonist or inverse agonist of RORγ
T1 construct: RORγ LBD was diluted with the complete buffer D to a concentration of 1 ng/μL; GST; purchased AB Vector
T1 sequence (P51449 269-508 limits assumed): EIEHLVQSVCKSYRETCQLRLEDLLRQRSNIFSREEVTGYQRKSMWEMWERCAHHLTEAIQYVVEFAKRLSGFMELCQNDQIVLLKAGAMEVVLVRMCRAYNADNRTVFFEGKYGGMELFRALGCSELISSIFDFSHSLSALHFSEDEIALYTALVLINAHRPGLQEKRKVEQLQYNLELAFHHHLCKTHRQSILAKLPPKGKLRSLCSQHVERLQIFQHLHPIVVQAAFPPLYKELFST
Experimental: 1. LanthaScreen® TR-FRET RORγ co-activation system (Life Technologies)
A complete buffer D (complete TR-FRET Coregulator) (Life Technologies) was formulated first, containing a final concentration of 5 mM DTT. The final concentration of DMSO was 2%. The test compound was serially diluted to 2× final concentration in the complete buffer D containing 2% of DMSO, and the maximum dose was […]. The test compound was added to the test wells of a 384-well plate (PerkinElmer) in 10 μl/well. Two parallel control wells were set up for each test compound at the same concentration. 4×RORγ LBD (AB Vector) was formulated. RORγ LBD was diluted with the complete buffer D to a concentration of 1 ng/μL, and added to the test wells of 384-well plate in 5 μl/well. The negative control well was 5 μL of complete buffer D without RORγ LBD. A mixed solution comprising 0.6 μM of fluorescein-D22 (4×) and 8 nM of terbium(Tb)-labeled anti-GST antibody (4×) (Life Technologies) was formulated with the complete buffer D, and 5 μL of the mixed solution was added to the 384-well plate. The total reaction system was 20 μL. The 384-well plate was gently shaken on a shaker, and incubated at room temperature in the dark for 2-4 hours.
Fluorescence readings were determined with Tecan Infinite M1000. The logarithmic curve of the ratio of the emission wavelength of 520 nm/495 nm to the concentration of the compound was plotted by GraphPad Prism 6.0 software. EC50/IC50 value of the test compound was calculated.

[1] = for agonist the value refers to Emax(%), read-out: Emax(%)/maximum inhibition rate b: Emax(%) (agonist)

| SMILES | EC50 (IL-17A) [nM] | Emax (IL-17A) [%] | EC50 (RORγ LBD) [nM] | Type (RORγ LBD) | Emax (RORγ LBD; [1]) [%] | IC50 (RORγ LBD) [nM] | Emax (RORγ LBD; read-out: Emax(%)/maximum inhibition rate b: maximum inhibition rate (inverse agonist)) [%] |
| --- | --- | --- | --- | --- | --- | --- | --- |
| CCS(=O)(=O)c1ccc([C@@H](CO)NC(=O)c2ccc3c(c2)cc(Cc2ccc(Cl)cc2C(F)(F)F)n3CCF)cc1 [Example 3, (S)-2-(4-Chloro-2-(trifluoromethyl)benzyl)-N-(1-(4-(ethylsulfonyl)phenyl)-2-hydroxyethyl)-1-(2-fluoroethyl)-1H-indole-5-carboxamide] | 169 | 136 |  |  |  |  |  |
| O=C(N[C@@H](CO)c1ccc(S(=O)(=O)CC2CC2)cc1)c1ccc2c(c1)cc(Cc1ccc(F)cc1C(F)(F)F)n2CCF [Example 14, (R)—N-(1-(4-((Cyclopropylmethyl)sulfonyl)phenyl)-2-hydroxyethyl)-2-(4-fluoro-2-(trifluoromethyl)benzyl)-1-(2-fluoroethyl)-1H-indole-5-carboxamide] | 42 | 99 | 138 | Agonist | 99 |  |  |
| CCS(=O)(=O)c1ccc([C@H](CO)NC(=O)c2ccc3c(c2)cc(Cc2ccc(C(F)(F)F)cc2)n3CCF)cc1 [Example 17, (R)-2-(4-(trifluoromethyl)benzyl)-N-(1-(4-(ethylsulfonyl)phenyl)-2-hydroxyethyl)-1-(2-fluoroethyl)-1H-indole-5-carboxamide] |  |  |  | Inverse agonist |  | 29 | 67 |
| CCS(=O)(=O)c1ccc([C@H](COC)NC(=O)c2ccc3c(c2)cc(Cc2ccc(Cl)cc2C(F)(F)F)n3CCF)cc1 [Example 16, (R)-2-(4-Chloro-2-(trifluoromethyl)benzyl)-N-(1-(4-(ethylsulfonyl)phenyl)-2-methoxyethyl)-1-(2-fluoroethyl)-1H-indole-5-carboxamide] | 8 | 99 | 18 | Agonist | 97 |  |  |
| CCS(=O)(=O)c1ccc([C@H](CO)NC(=O)c2cc3cc(Cc4ccc(Cl)cc4C(F)(F)F)n(CCF)c3cc2F)cc1 [Example 5, (R)-2-(4-Chloro-2-(trifluoromethyl)benzyl)-N-(1-(4-(ethylsulfonyl)phenyl)-2-hydroxyethyl)-6-fluoro-1-(2-fluoroethyl)-1H-indole-5-carboxamide] |  |  | 334 | Agonist | 110 |  |  |
| CCS(=O)(=O)c1ccc([C@H](CO)NC(=O)c2ccc3c(c2)cc(Cc2ccc(Cl)cc2C(F)(F)F)n3C2CC2)cc1 [Example 11, (R)-2-(4-Chloro-2-(trifluoromethyl)benzyl)-1-cyclopropyl-N-(1-(4-(ethylsulfonyl)phenyl)-2-hydroxyethyl)-1H-indole-5-carboxamide] | 276 | 72 | 22 |  | 94 |  |  |
| O=C(N[C@@H](CO)c1ccc(S(=O)(=O)C2CC2)cc1)c1ccc2c(c1)cc(Cc1ccc(Cl)cc1C(F)(F)F)n2CCF [Example 15, (R)-2-(4-Chloro-2-(trifluoromethyl)benzyl)-N-(1-(4-(cyclopropylsulfonyl)phenyl)-2-hydroxyethyl)-1-(2-fluoroethyl)-1H-indole-5-carboxamide] |  |  | 124 | Agonist | 109 |  |  |
| CCS(=O)(=O)c1ccc(C(CO)NC(=O)c2ccc3c(c2)cc(Cc2ccccc2C(F)(F)F)n3C(C)C)cc1 (stereo not shown) [Example 1, N-(1-(4-(Ethylsulfonyl)phenyl)-2-hydroxyethyl)-1-isopropyl-2-(2-(trifluoromethyl)benzyl)-1H-indole-5-carboxamide] |  |  | 64 | Agonist | 94 |  |  |
| CCS(=O)(=O)c1ccc(C(CO)NC(=O)c2ccc3c(c2)cc(Cc2ccc(Cl)cc2C(F)(F)F)n3CCF)cc1 (stereo not shown) [Example 2, 2-(4-Chloro-2-(trifluoromethyl)benzyl)-N-(1-(4-(ethylsulfonyl)phenyl)-2-hydroxyethyl)-1-(2-fluoroethyl)-1H-indole-5-carboxamide] | 90 | 82 |  |  |  |  |  |
| O=C(N[C@@H](CO)c1ccc(S(=O)(=O)CC2CC2)cc1)c1ccc2c(c1)cc(Cc1ccc(Cl)cc1C(F)(F)F)n2CCF [Example 13, (R)-2-(4-Chloro-2-(trifluoromethyl)benzyl)-N-(1-(4-((cyclopropylmethyl)sulfonyl)phenyl)-2-hydroxyethyl)-1-(2-fluoroethyl)-1H-indole-5-carboxamide] | 27 | 65 | 69 | Agonist | 96 |  |  |
| O=C(N[C@@H](CO)c1ccc(S(=O)(=O)NC2CC2)cc1)c1ccc2c(c1)cc(Cc1ccc(Cl)cc1C(F)(F)F)n2CCF [Example 12, (R)-2-(4-Chloro-2-(trifluoromethyl)benzyl)-N-(1-(4-(N-cyclopropylsulfamoyl)phenyl)-2-hydroxyethyl)-1-(2-fluoroethyl)-1H-indole-5-carboxamide] | 25 | 71 | 13 | Agonist | 89 |  |  |
| CCS(=O)(=O)c1ccc([C@H](CO)NC(=O)c2cc3cc(Cc4ccc(Cl)cc4C(F)(F)F)n(C4CC4)c3cc2F)cc1 [Example 6, (R)-2-(4-Chloro-2-(trifluoromethyl)benzyl)-1-cyclopropyl-N-(1-(4-(ethylsulfonyl)phenyl)-2-hydroxyethyl)-6-fluoro-1H-indole-5-carboxamide] |  |  | 79 | Agonist | 105 |  |  |
| CCS(=O)(=O)c1ccc([C@H](CO)NC(=O)c2ccc3c(c2)cc(CN2CCOCC2C(F)(F)F)n3CCF)cc1 (stereo partly drawn) [Example 7, N—((R)-1-(4-(Ethylsulfonyl)phenyl)-2-hydroxyethyl)-1-(2-fluoroethyl)-2-((3-(trifluoromethyl)morpholino)methyl)-1H-indole-5-carboxamide] |  |  | 80 | Agonist | 84 |  |  |

Source: patent US20200131123A1, “INDOLE-FORMAMIDE DERIVATIVE, PREPARATION METHOD THEREFOR AND USE THEREOF IN MEDICINE” (Jiangsu Hengrui Medicine Co., Ltd., priority 2017, published 2020)
